Consider three molecules from patent US12600796B2, “Constructs for chimeric antigen receptors” (Carisma Therapeutics Inc., priority 2020, dated 2026).

Assay [1] has as its system Human macrophages. Nature of the assay: Viability, CAR expression and M1/M2 markers of HER2 CAR mRNA-electroporated macrophages treated with interferons. The assay is classed as cell-based. Particulars: for M1 phenotype (based on CD86 expression): FIG. 121E; for M2 markers (based on CD163 expression): FIG. 121F. On the procedure: Human macrophages were electroporated with HER2 CAR mRNA comprising m6AGCap1 and PsU modifications. Cells were cultured with cytokines that induce an M1 phenotype such as IFN-alpha, IFN-beta, IFN-gamma, IFN-gamma plus lipopolysaccharide (LPS), TNF-alpha, IL-6 or a STING ligand (STING-L) for up to 48 hours and then cytokines were washed off and fresh media was added. CAR expression and M1 marker expression were measured on days 2 and 7 after transfection. Fluorescent labeled HER2+ breast cancer cells (CRL2351) were co-cultured with HER2 CAR macrophages two days after the macrophages were transfected. Cancer cell growth was monitored via its fluorescence on an Incucyte® live imaging microscope every four hours. The Effector (CAR macrophage) to Target (cancer cell) ratio was 5:1.
Five different mRNA modifications were also tested to determine if interferon treatment differentially affected macrophages transfected with mRNA comprising different modifications. Human macrophages were electroporated with HER2 CAR mRNA comprising different mRNA modifications. CAR expression and M1 markers were detected by Flow Cytometry (Attune) on day four after electroporation. Day 4 CAR macrophage cells were then co-cultured with a Nuc-Light labeled, HER2+ breast cancer cell line (CRL2351) at an Effector (CAR macrophage) to Target (cancer cell) ratio of 5:1. Cancer cell growth was monitored via its fluorescence on an Incucyte® live imaging microscope every four hours.
Human macrophages were electroporated with 300 nM CAR mRNA comprising m6AGCap1 and PsU modifications. Cells were cultured with 20 ng/mL IFNs for 24 hours and then the cells were washed to remove cytokines. CAR expression was detected by Flow Cytometry (Attune) on day 2 after transfection. Cells were then co-cultured with a Nuc-Light labeled, HER2+ breast cancer cell line (CRL2351) at the Effector to Target ratio of 3:1. Cancer cell growth was monitored via its fluorescence on an Incucyte® live imaging microscope. CAR expression and M1 markers in macrophages were detected by Flow Cytometry (Attune) on day 7 after transfection.

The test system of assay [2] is HER2+ breast cancer cells (CRL2351). Kind of assay: Cytokine secretion of interferon-treated HER2 CAR macrophages co-cultured with cancer cells (MSD). The assay is classed as cell-based, human. Particulars: E:T 3:1, supernatant at 48 hours; FIG. 126. The procedure:
Human macrophages were electroporated with 150 nM HER2 CAR mRNA comprising m6AGCap1 and PsU modifications. HER2+ breast cancer cells (CRL2351) were co-cultured with CAR macrophages after the macrophages were transfected with the CAR mRNA at an Effector (CAR macrophage) to Target (cancer cell) ratio of 3:1. Supernatant was collected 48 hours after the cancer cells and macrophages were co-cultured and cytokine levels were measured using a Meso Scale Discovery (MSD) instrument.

In assay [3] the test system is Human macrophages. Kind of assay: mCherry mRNA expression in transfected macrophages (Incucyte). The assay is classed as cell-based. Particulars: different doses, one day; FIG. 129. The procedure: Human macrophages were transfected with mCherry mRNA comprising m6AGCap1 and PsU or N1mPsU modifications and were then cultured for one day with different doses of IFN-γ. mCherry expression was monitored on an Incucyte® live imaging microscope.
In order to determine whether an RNaseL inhibitor could rescue IFN-γ-induced instability of transfected mRNA, human macrophages were treated with 1 μM sunitinib (an RNaseL inhibitor) two hours prior to the transfection of mCherry mRNA comprising m6AGCap1 and PsU modifications. Transfected cells were then cultured for one day with different dosages of IFN-γ. mCherry expression was monitored on an Incucyte® live imaging microscope.
The effect of another RNaseL inhibitor (RLI or ABCE1) was also tested to further validate the concept. Human macrophages were co-transfected with mRNA encoding mCherry comprising m6AGCap 1 and PsU modifications and with mRNA encoding ABCE1.

In assay [4] the test system is CRL-2351 cells expressing nuclear GFP. Kind of assay: Tumor killing by macrophages and Her2-Zeta CAR macrophages primed with plate-coated agonist proteins (Incucyte). In kind it is cell-based, human. Particulars: plate-coated protein, 3 h priming; FIGS. 5A, 6A, 7A. The procedure:
(§1) To generate Her2-Zeta CAR expressing macrophages, primary human macrophages were suspended in EP buffer (MaxCyte) containing 300 nM mRNA (TriLink) at a concentration of 90×10^6 cells/mL. 100 μL of cell mixture was added to an electroporation cassette (OC100×2; MaxCyte) and electroporated using the Experimental T cell 1 setting. Cells were removed from the cassette, plated in 3 mL of TexMACS media (Miltenyi Biotech) containing 20% FBS (Gibco) on UpCell plates (Thermo Scientific), and incubated overnight at 37 C and 5% CO2.
(§2) Recombinant CD40 ligand (Peprotech), 4-1BB ligand (Enzo Life Sciences), and 4-1BB receptor (Peprotech) were resuspended in molecular grade water to a stock concentration of 100 μg/mL. Stock solution was then used to create working solutions in PBS ranging from 2-0.002 μg/mL. 100 uL of working solution was added to wells in a 96-well plate and left at room temperature for 4 h.
Plates were removed from the incubator and left at room temperature for 30 min. Cells were detached from plate, counted using the NC-200 automated cell counter (Chemomtech), and re-suspended in TexMACS media with 10% FBS. […] Cell lysis was detected using Incucyte® analysis (Essen Bioscience). Tumor cell death was calculated by integrated GFP intensity per well relative to time 0.

Assay [5] concerns primary human macrophages. Kind of assay: M1/M2 surface marker expression after priming with agonist proteins (flow cytometry). The assay is classed as cell-based. Particulars: mRNA CAR macrophages, 3 days on coated wells; FIGS. 5B, 6B, 7B. The procedure:
as §1, §2
For detection of cell surface proteins, macrophages were plated onto wells coated with agonist molecules in a final volume of 200 uL TexMACS media+10% FBS+10 ng/mL GM-CSF and incubated for 3 days at 37 C and 5% CO2. Cells were incubated in 300 μL Accutase (Sigma) for 30 min and transferred to 96-well round bottom plate for staining. Cells were incubated in FACS buffer containing 20 μg/mL Her2-His for 20 min at RT, followed by incubation in Human TruStain FcX for 10 min at RT. […]
A general note: Flow cytometry measures light scatter and fluorescence of single cells or particles in a stream.

As to “IFN-γ: interferon cytokine that induces an M1 phenotype”, in the assay with Human macrophages [1], the “M1 phenotype (based on CD86 expression)” value is recorded as “induction of an M1 phenotype” and the “M2 markers (based on CD163 expression)” value is listed as “reduction of M2 markers”. Besides, in assay [2], the “secretion of IL-6, IL-8 and TNFα” value was “increased secretion of the cytokines IL-6, IL-8 and TNFα”. Further, the “mCherry mRNA expression” value in the assay with Human macrophages [3] is listed as “reduced mCherry mRNA expression”.
For the molecule IFN-α, in the assay on Human macrophages [1], the “M1 phenotype (based on CD86 expression)” value is recorded as “induction of an M1 phenotype” and the “M2 markers (based on CD163 expression)” value was “reduction of M2 markers”. Further, in assay [2], the “secretion of IL-6, IL-8 and TNFα” value is “increased secretion of the cytokines IL-6, IL-8 and TNFα”.

B1: CD40L: Recombinant CD40 ligand (Peprotech), a CD40 agonist (protein, UniProt P29965 113-261, looked up)
CD40 ligand, soluble form: MQKGDQNPQIAAHVISEASSKTTSVLQWAEKGYYTMSNNLVTLENGKQLTVKRQGLYYIYAQVTFCSNREASSQAPFIASLCLKSPGRFERILLRAANTHSSAKPCGQQSIHLGGVFELQPGASVFVNVTDPSQVSHGTGFTSFGLLKL
For the molecule B1, the “tumor killing ability of macrophages and CAR macrophages” value in assay [4] is listed as “significantly improved the tumor killing ability”. Besides, in assay [5], the “M1 phenotype (M1 and M2 markers)” value was “induced an M1 phenotype”.
